Counter-ions that a name gives are not always drawn.
Experiments:
[1] = test system: MCF7 ESR1 wild type cells; assay: Cell proliferation assay in MCF7; assay type: cell-based; settings: Homo sapiens, 168 h, seven days, read-out: Relative IC50 MCF7 ESR1 wild type, cell proliferation
Method: The purpose of the following cell proliferation assays generally is to detect whether a test compound has effects on cell proliferation.
Seed MCF7 (purchased from ATCC HTB-22) cells at a density of 2,000 cells per well in DMEM phenol red free media 10% FBS (20 μL volume) (charcoal stripped) into a clear bottom 384-well cell culture plate. Plate MCF7-ESRY537N-682 (generated by CRISPR/Cas9 gene editing of ESr1 gene in MCF7 cells, clone #682) in DMEM media supplemented with 10% FBS, and 1% penicillin/streptomycin antibiotics at a density of 1000 cells per well. Incubate the plates at 37° C. and 5% CO2. The following day dose the cells with the test compound. Use an Echo 555 acoustic dispenser to prepare test compound serial dilutions (1:3) in a range from 60 μM to 0.003 μM. Dose the cells with the addition of 5 μL from the serial dilution plate to the cell plate, producing a final DMSO concentration of 0.2% with a final test compound concentration dose range between 20 and 0.001 μM. For the maximum point use media containing 0.2% of DMSO and for the minimum point use fulvestrant diluted at 2 μM final concentrations in the growth media containing 0.2% DMSO. After dosing with the test compound, incubate the cell plates at 37° C. and 5% CO2. […] Scan the plates with ACUMEN EXPLORER™ (Laser-scanning fluorescence microplate cytometer manufactured by TTP LABTECH LTD).

ERα = target: T1, ERα (Homo sapiens, UniProt P03372); assay: PRα induction assay in MCF7 cells (ERα agonism); assay type: cell-based; settings: MCF7 breast cancer cells, 24 hours, up to 2 μM
T1 construct: measure the degradation of ERα by a test compound in an ERα positive breast cancer cell line such as MCF7; host or cells: MCF7
T1 sequence (P03372 1-595): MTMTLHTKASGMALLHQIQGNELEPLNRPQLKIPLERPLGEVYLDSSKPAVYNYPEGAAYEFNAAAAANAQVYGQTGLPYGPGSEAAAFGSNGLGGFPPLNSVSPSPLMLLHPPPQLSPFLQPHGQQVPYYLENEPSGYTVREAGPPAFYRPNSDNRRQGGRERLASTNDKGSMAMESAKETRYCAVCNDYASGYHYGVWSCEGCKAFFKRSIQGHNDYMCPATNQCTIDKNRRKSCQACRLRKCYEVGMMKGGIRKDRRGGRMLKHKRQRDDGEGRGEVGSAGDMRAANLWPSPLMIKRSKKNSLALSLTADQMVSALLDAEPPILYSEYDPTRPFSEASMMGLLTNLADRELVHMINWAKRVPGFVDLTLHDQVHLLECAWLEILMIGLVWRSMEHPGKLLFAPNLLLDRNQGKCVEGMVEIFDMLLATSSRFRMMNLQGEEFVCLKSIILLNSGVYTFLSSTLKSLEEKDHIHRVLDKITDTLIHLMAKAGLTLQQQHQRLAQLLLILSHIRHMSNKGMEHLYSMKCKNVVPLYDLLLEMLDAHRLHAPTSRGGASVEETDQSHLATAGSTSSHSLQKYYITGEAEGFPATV
Method: The purpose of the following PRα induction assay is to determine whether a test compound has agonistic activity against ERα receptor (an agonist would be expected to activate the receptor).
Culture MCF7 (purchased from ATCC HTB-22) in DMEM media supplemented with 10% FBS, 0.01 mg/mL human insulin 1 and 1% penicillin/streptomycin antibiotics and plate the cells (prior to becoming 70% confluent) in 384-well flat-bottom plates at a density of 4,000 cells per well in 20 μL volume in DMEM phenol red free media containing 10% FBS (charcoal stripped). Incubate the cells overnight in a cell culture incubator (5% CO2, 95% relative humidity at 37° C.) and allow the cells to attach to the plate. The following day dose the cells with test compound. Use an Echo 555 acoustic dispenser to prepare compound serial dilutions (1:3) in a range from 6 μM to 0.0003 μM. […]
The following day wash cells with PBS 0.05% TWEEN® 20 (2×20 μL) and incubate with secondary antibody (20 μL/well) (1:1000 dilution, Goat anti-rabbit IgM ALEXA FLUOR™ 488) in PBS 1% BSA for 105 minutes at room temperature. […] Scan plates with ACUMEN EXPLORER™ (Laser-scanning fluorescence microplate cytometer manufactured by TTP LABTECH LTD) to measure PRα. […]

Structure (SMILES)	IC50 [1] [nM]	agonistic activity (PRα induction) (ERα)
O=S(=O)(O)Oc1ccc2c3c(cnc2c1)-c1ccc(C(F)(F)F)cc1O[C@@H]3c1ccc(OCCN2CC(CF)C2)cc1 [Example 1, [(5R)-5-[4-[2-[3-(Fluoromethyl)azetidin-1-yl]ethoxy]phenyl]-8-(trifluoromethyl)-5H-chromeno[4,3-c]quinolin-2-yl]hydrogen sulfate]	518 ± 49.9	no significant agonistic activity
O=C(O)[C@H]1O[C@@H](Oc2ccc3c4c(cnc3c2)-c2ccc(C(F)(F)F)cc2O[C@@H]4c2ccc(OCCN3CC(CF)C3)cc2)[C@H](O)[C@@H](O)[C@@H]1O [Example 2, (2S,3S,4S,5R,6S)-6-[[(5R)-5-[4-[2-[3-(Fluoromethyl)azetidin-1-yl]ethoxy]phenyl]-8-(trifluoromethyl)-5H-chromeno[4,3-c]quinolin-2-yl]oxy]-3,4,5-trihydroxy-tetrahydropyran-2-carboxylic acid]	550 ± 238	no significant agonistic activity

From US11744844B2, “Selective estrogen receptor degraders” (Eli Lilly and Company, priority 2021, dated 2023)
